Legend:
[1] = tested on: BCL2; assay: Gene expression profile using RTQ-PCR: BCL2; type: cell-based, human; details: 3 μM, ± SE, N = 3
Protocol: The effect of the compound of example 7 was measured in stimulated untreated cells from the monocytic cell line (THP-1), human monocytes and synovial cells from rheumatoid arthritis patient. The effect of the compound in the THP-1 cell line was measured in terms of gene expression and was expressed as fold changes as compared to the cell stimulated control with no drug treatment.
THP-1 cells, human monocytes and synovial cells were treated with compound of example 7 or vehicle (0.5% DMSO). Total RNA isolation using a commercial RNA extraction kit (Qiagen Corporation, Germany) The first-strand cDNA was synthesized from total RNA using first strand cDNA synthesis kit from Invitrogen Corporation (California, USA). This was followed by real time quantitative polymerase chain reaction (RTQ PCR) using gene specific primers and standard thermal program of initial denaturation at 95° C. for 5 min and cycles of 95° C. for 10 seconds, followed by 60° C. for 30 seconds (Realplex PCR machine from Eppendorf, Germany). Quantitative measurement of products made during PCR cycles was normalized against a housekeeping gene (Actin) and was used to measure the gene expression as fold changes as compared to respective control.

[2] = tested on: DBA/1J mice with collagen induced arthritis; assay: Collagen-induced arthritis in mice; type: in vivo
Protocol: The experiment was designed as in reference, J. Experimental Medicine, 162, 637-646 (1985), the disclosure of which is incorporated by reference for the teaching of the experiment.
Male DBA/1J mice with body weight range of 18-22 g, aged 8-10 weeks were immunized with an emulsion equivalent to 200 μg of type II collagen (Elastin products, USA) in Freund's Complete Adjuvant (Sigma, USA), injected intradermally at the base of the tail. The animals were boosted with 200 μg of freshly prepared typeII collagen emulsion emulsified in Freund's Complete Adjuant (Sigma, USA) on day 21. A group of naïve mice was also maintained alongside. Naïve animals are the animals which are neither immunized for induction of arthritis nor do they receive any treatment. This group is maintained to take care of the normal changes in the paw thickness with age.
From day 23, mice were examined daily once for the signs of rheumatoid arthritis, using the articular index and paw thickness as parameters. Articular index scoring was performed employing the following criteria:
• 0: No redness or swelling • 1: Redness, but no swelling • 2: Redness and swelling of the paw • 3: Redness and severe swelling of the paw Hind limbs: Scale 0-4 • 0: No redness or swelling • 1: Redness and mild swelling of paw • 2: Redness and moderate swelling of paw and/or swelling of at least one of the digits • 3: Redness and moderate/severe swelling of paw, swelling of ankle joint and/or swelling of one or more digits • 4: Redness and severe swelling of paw, digits and ankle joint, with joint stiffness Mice with a minimum hind paw score of 2, of even one paw, were inducted into the study. Mice were randomized into the various study groups, each group having at least eight animals, and were administered the vehicle (0.5% CMC, 10 mL/kg p.o. and s.c. twice daily), the test compound (5 mg/kg, p.o. and s.c., twice daily) and standard compound Enbrel (Wyeth Limited, UK), 3 mg/kg, s.c., once daily. The test compound was administered as a suspension in CMC. The requisite quantity of the compound was accurately weighed and was hand-pulverized using pestle-mortar. After mixing with minimum quantity of Tween 80 necessary to wet the compound, requisite quantity of 0.5% CMC solution was added and the compound was ground with CMC till the uniform suspension was obtained. Standard compound ‘Enbrel’ was used as an aqueous solution. The dosing of the compounds was done for 12 continuous days.
The following parameters were observed and recorded daily, • 1. Body weight • 2. Articular index • 3. Paw thickness of hind limbs only, in mm using a tension free calipers • 4. Any significant observation regarding the condition of the animals.
On 13th day morning, 1 h after the compound treatment, the animals were sacrificed, blood withdrawn, and plasma collected for drug level analyses. Also, the hind limbs of all the animals were preserved for histopathological evaluations.

[3] = tested on: TNF-α; assay: Human monocyte assay (LPS-induced): TNF-α; type: cell-based; details: LPS stimulated human monocytes, 5 h
From the text: The assay was designed as in reference, Physiological Research, 52, 593-598, (2003), the disclosure of which is incorporated by reference for the teaching of the assay.
The objective of the assay is to determine whether compounds of the present invention—mediated inhibition of LPS-induced cytokines from monocytic THP-1 cell line translates to physiologically relevant human cells. Accordingly, the effect of compounds of the present invention on LPS—induced cytokine production from freshly isolated human monocytes was ascertained.
Peripheral blood was collected from healthy donors into potassium EDTA vacutainer tubes (BD Biosciences, USA). hPBMCs were isolated using density gradient separation (Histopaque-1077; Sigma, USA) and suspended in assay medium which is RPMI culture medium (Sigma, USA) containing 10% heat inactivated FBS (JRH Biosciences, Australia), 100 U/mL penicillin (Sigma, USA) and […] streptomycin (Sigma, USA). Monocytes in the hPBMCs were counted using a Coulter Counter following which the cells were resuspended at 2×10^5 monocytes/mL of assay medium. A cell suspension containing 2×10^4 monocytes was aliquoted per well of a 96-well plate (Nunc, USA). Subsequently, the hPBMCs were incubated for 4-5 h at 37° C., 5% CO2. […] The IC50 values were calculated by a nonlinear regression method using Graph Pad software (Prism 3.03).

SMILES: C/C=C/C(O)C(C)/C=C/C(=N\O)C(C)C(O)C(C)C1OC(=O)/C(OC)=C/C(C)=C/C(C)C(O)C(CC)C(O)C(C)C/C(C)=C/C=C/C1OC (stereo not shown) [Compound of example 7, (3Z,5E,13E,15E)-18-((5Z,6E,10E)-3,9-Dihydroxy-5-(hydroxymino)-4,8-dimethyldodeca-6,10-dien-2-yl)-9-ethyl-8,10-dihydroxy-3,17-dimethoxy-5,7,11,13-tetramethyl oxacyclooctadeca-3,5,13,15-tetraen-2-one]
- BCL2 gene expression ([1]; Human monocytes, 3 h): −1.7 + 0.4 log fold change
- BCL2 gene expression ([1]; THP-1 cells, 12 h): −1.3 ± 0.8 log fold change
- severity of arthritis ([2]; 5.0 mg/kg CMC suspension, subcutaneously twice daily, 12 days): reduced the severity of arthritis
- benefit compared with Enbrel ([2]; 5.0 mg/kg s.c. twice daily vs Enbrel 3 mg/kg, s.c., once daily): equal to that achieved with Enbrel treatment
- arthritic changes of joints (histopathology observations) ([2]; 5 mg/kg, s.c.): showed protection against arthritic changes with absence of hyperplasia of synovium
- Histological score of the section of paws ([2]; compound of example 7 5 mg/kg, s.c., n=10, Enbrel 3 mg/kg, s.c., n=6, vehicle control 15.14+1.0): 3.6+1.54
- IC50 [3]: 10 µM
